Experiments:
Thymidylate synthase [1] = molecular target: Thymidylate synthase (Mus musculus, UniProt P07607); experiment: Inhibitory effect on murine leukemia (L1210) thymidylate synthase
Thymidylate synthase [2] = molecular target: T1, Thymidylate synthase (Lactobacillus casei, UniProt P00469); experiment: Inhibitory effect on Lactobacillus casei thymidylate synthase; design: species or system Lacticaseibacillus casei
T1 sequence (P00469 whole entry): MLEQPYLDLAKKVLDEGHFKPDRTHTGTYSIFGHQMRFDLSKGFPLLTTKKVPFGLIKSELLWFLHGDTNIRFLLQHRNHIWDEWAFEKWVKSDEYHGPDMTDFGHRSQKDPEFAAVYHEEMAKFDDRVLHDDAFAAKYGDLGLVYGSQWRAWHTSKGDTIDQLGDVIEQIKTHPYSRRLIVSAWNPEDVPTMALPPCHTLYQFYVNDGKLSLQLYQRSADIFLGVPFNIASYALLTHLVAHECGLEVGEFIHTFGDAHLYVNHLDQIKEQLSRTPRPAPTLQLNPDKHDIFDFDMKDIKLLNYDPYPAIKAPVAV

Thymidylate synthase [3] = molecular target: Thymidylate synthase (Homo sapiens, UniProt P04818); experiment: Inhibitory effect on human lymphoblast (Molt/4F) thymidylate synthase
Thymidylate synthase (Homo sapiens, UniProt P04818), sequence (P04818 whole entry): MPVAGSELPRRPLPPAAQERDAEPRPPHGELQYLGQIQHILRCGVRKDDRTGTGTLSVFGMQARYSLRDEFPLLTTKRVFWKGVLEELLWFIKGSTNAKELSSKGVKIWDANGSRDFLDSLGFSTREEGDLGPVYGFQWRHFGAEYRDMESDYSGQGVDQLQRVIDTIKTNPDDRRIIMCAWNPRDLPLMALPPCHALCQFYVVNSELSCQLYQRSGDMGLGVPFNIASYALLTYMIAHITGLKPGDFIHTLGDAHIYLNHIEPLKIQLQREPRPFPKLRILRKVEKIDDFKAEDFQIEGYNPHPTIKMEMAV

Thymidylate synthase (Mus musculus, UniProt P07607), sequence (P07607 whole entry): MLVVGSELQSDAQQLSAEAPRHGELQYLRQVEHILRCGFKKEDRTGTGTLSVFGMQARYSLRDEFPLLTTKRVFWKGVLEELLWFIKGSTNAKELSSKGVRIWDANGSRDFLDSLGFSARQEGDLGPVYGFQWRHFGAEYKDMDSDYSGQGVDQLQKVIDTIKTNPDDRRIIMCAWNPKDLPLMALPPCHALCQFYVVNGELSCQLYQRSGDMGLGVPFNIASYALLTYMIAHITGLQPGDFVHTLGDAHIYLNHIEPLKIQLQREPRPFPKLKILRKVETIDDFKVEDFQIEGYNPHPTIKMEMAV

SMILES | Ki (Thymidylate synthase [1]) | Ki (Thymidylate synthase [2]) | Ki (Thymidylate synthase [3])
O=c1[nH]c(=O)n([C@H]2C[C@H](O)[C@@H](COP(=O)(O)O)O2)cc1-c1ccc(C(F)(F)F)cc1 | 93.4 µM | 4.93 µM | –
Nc1ccc(-c2cn([C@H]3C[C@H](O)[C@@H](COP(=O)(O)O)O3)c(=O)[nH]c2=O)cc1 | 11.3 µM | 1.13 µM | –
O=c1[nH]c(=O)n([C@H]2C[C@H](O)[C@@H](COP(=O)(O)O)O2)cc1-c1ccc([N+](=O)[O-])cc1 | 48.3 µM | 6.42 µM | –
O=c1[nH]c(=O)n([C@H]2C[C@H](O)[C@@H](COP(=O)(O)O)O2)cc1-c1ccc(Br)cc1 | 29.2 µM | 1.81 µM | –
N#Cc1ccc(-c2cn([C@H]3C[C@H](O)[C@@H](COP(=O)(O)O)O3)c(=O)[nH]c2=O)cc1 | 97.8 µM | 8.75 µM | 114 µM
O=c1[nH]c(=O)n([C@H]2C[C@H](O)[C@@H](COP(=O)(O)O)O2)cc1-c1ccccc1 | 12.2 µM | 0.96 µM | –
CN(C)c1ccc(-c2cn([C@H]3C[C@H](O)[C@@H](COP(=O)(O)O)O3)c(=O)[nH]c2=O)cc1 | 48 µM | 1.41 µM | –
NC(=O)c1ccc(-c2cn([C@H]3C[C@H](O)[C@@H](COP(=O)(O)O)O3)c(=O)[nH]c2=O)cc1 | 113 µM | 5.67 µM | 119 µM
COC(=O)c1ccc(-c2cn([C@H]3C[C@H](O)[C@@H](COP(=O)(O)O)O3)c(=O)[nH]c2=O)cc1 | 46.1 µM | 3.99 µM | 102 µM
Cc1ccc(-c2cn([C@H]3C[C@H](O)[C@@H](COP(=O)(O)O)O3)c(=O)[nH]c2=O)cc1 | 8.3 µM | – | –
O=c1[nH]c(=O)n([C@H]2C[C@H](O)[C@@H](COP(=O)(O)O)O2)cc1-c1ccc(OCc2ccccc2)cc1 | 11.2 µM | – | –
COc1ccc(-c2cn([C@H]3C[C@H](O)[C@@H](COP(=O)(O)O)O3)c(=O)[nH]c2=O)cc1 | 33 µM | 1.21 µM | –
O=c1[nH]c(=O)n([C@H]2C[C@H](O)[C@@H](COP(=O)(O)O)O2)cc1-c1ccc(O)cc1 | 179 µM | 7.62 µM | 134 µM
